# Results taken from patent US4950686A, “Anti-mycoplasma agent” (Shionogi & Co., Ltd., priority 1986, dated 1990).
# Columns and labels:
# [1] = tested on: Mycoplasma gallisepticum S6 (standard strain); experiment: Anti-mycoplasma activity in vitro (MIC, broth dilution), strain S6; type: cell-based; conditions: Mycoplasmoides gallisepticum, 168 h, Mg S6, 37° C., 7 days; read-out: MIC
# Protocol: (§1) (1) Anti-mycoplasma activity test in vitro
# (§2) MIC values of each of Tropolones were measured on the following strains according to the following method.
# (§3) (a) Mycoplasma gallisepticum
# (§4) Medium: Chick PPLO broth supplemented with 20% equine serum (Eiken Kagaku Co., Ltd.)
# (§5) Method: Broth dilution method
# (§6) Inoculum: Culture incubated at 37° C. for 24-48 hr which is diluted with broth to 10^6 CCU/ml immediately before the use.
# (§7) To 1.6 ml of the broth is added 0.2 ml of an agent which has been subjected to 2-fold dilution and then added 0.2 ml of inoculum, which is incubated at 37° C. for 7 days.
# [2] = tested on: Mycoplasma gallisepticum T-7-T (wild strain, tylosin-resistant); experiment: Anti-mycoplasma activity in vitro (MIC, broth dilution), strain T-7-T; type: cell-based; conditions: Mycoplasmoides gallisepticum, 168 h, Mg T-7-T, 37° C., 7 days; read-out: MIC
# Protocol: as §1, §2, §3
# (§8) T-7-T (wild strain, tylosin-resistant)
# as §4, §5, §6, §7
# [3] = tested on: Mycoplasma gallisepticum MR-1 (wild strain, tylosin-resistant); experiment: Anti-mycoplasma activity in vitro (MIC, broth dilution), strain MR-1; type: cell-based; conditions: Mycoplasmoides gallisepticum, 168 h, Mg MR-1, 37° C., 7 days; read-out: MIC
# Protocol: as §1, §2, §3
# (§9) MR-1 (wild strain, tylosin-resistant)
# as §4, §5, §6, §7
# [4] = tested on: Mycoplasma hyopneumoniae ST-11 (standard strain); experiment: Anti-mycoplasma activity in vitro (MIC, broth dilution), strain ST-11; type: cell-based; conditions: Mesomycoplasma hyopneumoniae, Mh ST-11; read-out: MIC
# Protocol: as §1, §2
# (b) Mycoplasma hyopneumoniae
# Strain: ST-11 (standard strain)
# Medium: 850 ml of Hanks' solution supplemented with 0.5% lactoalbumin, 50 ml of 25% yeast, 100 ml of equine serum and 4-6 ml of 0.5% phenol red (pH 7.4-7.6)
# as §5
# Inoculum: Culture which is incubated for 3-4 days and diluted 10 times with the broth if color of the broth becomes yellow then. If it needs over 4 days until color of the broth becomes yellow, it is further subcultured. This is diluted 10 times with the broth to give inoculum.
# Assay is done in the same manner as in the above (a).
# [5] = tested on: Mycoplasma gallisepticum T-7-T (wild strain, tylosin-resistant); experiment: Mycoplasma gallisepticum air-sac infection method in chicken, strain T-7-T; type: in vivo, Mycoplasma gallisepticum; SPF chicken (white leghorn);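 on Index of Isolation: index = (P×1 + Q×2 + R×3)/S with range 0 to 6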
# Protocol: (§10) (2) Test of Effectiveness Mycoplasma gallisepticum air-sac infection method
# as §8
# (§11) Inoculation: To the right air-sac of 9 days old SPF chicken (a white leghorn) which has abstained from water and feed one day before is inoculated 0.20-0.25 ml/chicken of fresh mycoplasma culture incubated for 24-48 hr and diluted with broth (usually 100 times). The concentration in Table 2 is shown in a unit of mg/ml.
# (§12) Medium: Chick PPLO broth supplemented with 15% equine serum (Eiken Kagaku Co., Ltd.)
# (§13) Administration: A compound of this invention dissolved or suspended in the following solution is orally and forcibly administered once by a cannula immediately after the infection.
# (§14) Anatomization and Isolation of Microorganism: The chickens are anatomized 5 days after the infection, and the right and left air sacs are investigated whether they are attacked with a disease or not. The change caused by the disease is represented in four degrees; -: no change, +: slight, ++: medium and +++: serious. Microorganism is isolated from the right and left air-sacs and the trachea by using a sterilized applicator.
# (§15) Judgement: Judgement is done through an index of an air-sac disease and an index of a microorganism-isolation.
# (§16) Index of an air-sac-disease: First, indexes in the right and left air-sacs are separately calculated according to the following formula;
# (§17) {degree of disease (0-3)×chickens}/anatomized chickens
# (§18) and the index is calculated by the following formula;
# (§19) (index of right air-sac)×1+(index of left air-sac)×2
# (§20) Index of a microorganism isolation:
# (§21) P: chickens from the right air-sac of which microorganism is isolated,
# (§22) Q: chickens from the trachea of which microorganism is isolated,
# (§23) R: chickens from the left air-sac of which microorganism is isolated, and
# (§24) S: chickens investigated.
# [6] = tested on: Mycoplasma gallisepticum MR-1 (wild strain, tylosin-resistant); experiment: Mycoplasma gallisepticum air-sac infection method in chicken, strain MR-1;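 on Index of Isolation: index = (P×1 + Q×2 + R×3)/S with range 0 to 6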; type: in vivo, Mycoplasma gallisepticum; SPF chicken (white leghorn); conditions: 100 mg/kg × once oral, 10 mg/ml sol. b
# Protocol: as §10, §9, §11, §12, §13, §14, §15, §16, §17, §18, §19, §20, §21, §22, §23, §24
# [7] = 200 mg/kg × once oral, 20 mg/ml DW, inoculum 1.9 × 10^5
# [8] = 200 mg/kg × once oral, 20 mg/ml DW, inoculum 1.9 × 10^5, range 0-6.0
# [9] = 200 mg/kg × once oral, 20 mg/ml DW, inoculum 1.9 × 10^5, range 0-9.0
# [10] = 100 mg/kg × once oral, 10 mg/ml sol. b, inoculum 10^2
compound,measurement,setting,value
"N#CSc1cccccc1=O [Compound 15, 2-Thiocyanatotropone]",MIC,[1],6.25 mg/L
same,MIC,[2],6.25 mg/L
same,MIC,[3],12.5 mg/L
same,MIC,[4],0.39 mg/L
"Cc1ccc(S(=O)(=O)Oc2cccccc2=O)cc1 [Compound 16, O-(p-Toluensulfonyl)tropolone]",MIC,[1],3.13 mg/L
same,MIC,[4],6.25 mg/L
"CC(Oc1cccccc1=O)C(=O)O (stereo not shown) [Compound 17, O-(1-Carboxyethyl)tropolone]",MIC,[1],> 25 mg/L
same,MIC,[4],> 25 mg/L
"CC(C)(C)OC(=O)COc1cccccc1=O [Compound 18, O-(tert-Butyloxycarbonylmethyl)tropolone]",MIC,[1],> 25 mg/L
same,MIC,[4],> 25 mg/L
"CCOC(=O)C(C)Oc1cccccc1=O (stereo not shown) [Compound 20, O-(1-Ethoxycarbonylethyl)tropolone]",MIC,[1],> 25 mg/L
same,MIC,[2],> 25 mg/L
same,MIC,[4],> 25 mg/L
"O=C(COc1cccccc1=O)c1ccccc1 [Compound 21, O-(Benzoylmethyl)tropolone]",MIC,[1],0.78 mg/L
same,MIC,[4],0.2 mg/L
"C=CCOc1cccccc1=O [Compound 22, O-Allyltropolone]",MIC,[1],> 25 mg/L
same,MIC,[4],25 mg/L
"C[C@H]1c2cccc(O)c2C(=O)C2=C(O)[C@]3(O)C(=O)C(C(N)=O)=C(O)[C@@H](N(C)C)[C@@H]3[C@@H](O)[C@@H]21 [doxycycline, reference compound]","Change of air-sac, left: + (chickens)",[5]; [7],2
same,"Change of air-sac, left: ++ (chickens)",[5]; [7],1
same,"Change of air-sac, left: +++ (chickens)",[5]; [7],0
same,"Change of air-sac, left: - (chickens)",[5]; [7],2
same,"Change of air-sac, right: + (chickens)",[5]; [7],0
same,"Change of air-sac, right: ++ (chickens)",[5]; [7],4
same,"Change of air-sac, right: +++ (chickens)",[5]; [7],0
same,"Change of air-sac, right: - (chickens)",[5]; [7],1
same,"Isolation, L (left air-sac)",[5]; [7],5
same,"Isolation, R (right air-sac)",[5]; [7],5
same,"Isolation, T (trachea)",[5]; [7],5
same,Mycoplasma Isolated Chickens,[5]; [7],5
same,Index of Isolation,[5]; [8],6.0
same,Index of Disease,[5]; [9],3.2
"CC[C@H]1OC(=O)C[C@@H](O)[C@H](C)[C@@H](O[C@@H]2O[C@H](C)[C@@H](O[C@H]3C[C@@](C)(O)[C@@H](O)[C@H](C)O3)[C@H](N(C)C)[C@H]2O)[C@@H](CC=O)C[C@@H](C)C(=O)/C=C/C(C)=C/[C@@H]1CO[C@@H]1O[C@H](C)[C@@H](O)[C@@H](OC)[C@H]1OC [tylosin, reference compound]","Change of air-sac, left: + (chickens)",[5]; [10],0
same,"Change of air-sac, left: ++ (chickens)",[5]; [10],2
same,"Change of air-sac, left: +++ (chickens)",[5]; [10],0
same,"Change of air-sac, left: - (chickens)",[5]; [10],6
same,"Change of air-sac, right: + (chickens)",[5]; [10],1
same,"Change of air-sac, right: ++ (chickens)",[5]; [10],5
same,"Change of air-sac, right: +++ (chickens)",[5]; [10],1
same,"Change of air-sac, right: - (chickens)",[5]; [10],1
same,"Isolation, L (left air-sac)",[5]; [10],8
same,"Isolation, R (right air-sac)",[5]; [10],7
same,"Isolation, T (trachea)",[5]; [10],8
same,Mycoplasma Isolated Chickens,[5]; [10],8
same,Index of Isolation,"[5]; 100 mg/kg × once oral, 10 mg/ml sol. b, inoculum 10^2, range 0-6.0",5.60
same,Index of Disease,"[5]; 100 mg/kg × once oral, 10 mg/ml sol. b, inoculum 10^2, range 0-9.0",2.80
same,"Change of air-sac, left: + (chickens)",[5]; [7],0
same,"Change of air-sac, left: ++ (chickens)",[5]; [7],0
same,"Change of air-sac, left: +++ (chickens)",[5]; [7],0
same,"Change of air-sac, left: - (chickens)",[5]; [7],5
same,"Change of air-sac, right: + (chickens)",[5]; [7],0
same,"Change of air-sac, right: ++ (chickens)",[5]; [7],1
same,"Change of air-sac, right: +++ (chickens)",[5]; [7],4
same,"Change of air-sac, right: - (chickens)",[5]; [7],0
same,"Isolation, L (left air-sac)",[5]; [7],4
same,"Isolation, R (right air-sac)",[5]; [7],5
same,"Isolation, T (trachea)",[5]; [7],5
same,Mycoplasma Isolated Chickens,[5]; [7],5
same,Index of Isolation,[5]; [8],5.4
same,Index of Disease,[5]; [9],2.8
same,"Change of air-sac, left: + (chickens)",[6]; inoculum 0.3 × 10^5,1
same,"Change of air-sac, left: ++ (chickens)",[6]; inoculum 0.3 × 10^5,0
same,"Change of air-sac, left: +++ (chickens)",[6]; inoculum 0.3 × 10^5,0
same,"Change of air-sac, left: - (chickens)",[6]; inoculum 0.3 × 10^5,5
same,"Change of air-sac, right: + (chickens)",[6]; inoculum 0.3 × 10^5,0
same,"Change of air-sac, right: ++ (chickens)",[6]; inoculum 0.3 × 10^5,3
same,"Change of air-sac, right: +++ (chickens)",[6]; inoculum 0.3 × 10^5,3
same,"Change of air-sac, right: - (chickens)",[6]; inoculum 0.3 × 10^5,0
same,"Isolation, L (left air-sac)",[6]; inoculum 0.3 × 10^5,6
same,"Isolation, R (right air-sac)",[6]; inoculum 0.3 × 10^5,6
same,"Isolation, T (trachea)",[6]; inoculum 0.3 × 10^5,6
same,Mycoplasma Isolated Chickens,[6]; inoculum 0.3 × 10^5,6
same,Index of Isolation,"[6]; inoculum 0.3 × 10^5, range 0-6.0",6.0
same,Index of Disease,"[6]; inoculum 0.3 × 10^5, range 0-9.0",2.8
